These results are taken from a melting point compilation (Tetko et al.).

In turn, `COCCCS(N)(=O)=O` displayed a melting point of 41 to 43 °C.

For the molecule `N#Cc1cccc(-n2ccnc2)c1`, the melting point was in the range of 161 to 163 °C.

With `Cc1cc(N)[nH]c(=O)c1`, the melting point lay in the range of 256 to 258 °C. `CCC(C)C(=O)NCC(=O)O` (configuration not stated) yielded a melting point of 101 to 104 °C. For `O=C(O)c1ccc(S(=O)(=O)Cl)s1` the value was 119 to 121 °C.

Regarding `Cc1nn(-c2ccc(Cl)cc2)c2sc(C(=O)O)cc12`, the melting point fell in the range of 230 to 238 °C.

`COc1ccc(C=NO)cc1` yielded a melting point of 64 to 66 °C. Take `O=S(=O)(CCCBr)c1ccc(F)cc1`: the melting point was in the range of 36 to 38 °C. `Nc1ccc(N2C(=O)c3ccccc3C2=O)c(Cl)c1` had a melting point of 204 to 206 °C. Take `N#CCc1nc2cc(Cl)ccc2s1`: the melting point is 155 to 157 °C. Turning to `CC(C)(C)C1CCc2nc(N)sc2C1` (configuration not stated), the melting point lay within 131 to 133 °C. Molecule `Cc1cc(C)c(C)c(S(N)(=O)=O)c1C` had a melting point of 149 to 151 °C. Under `Oc1cccc(-n2cncn2)c1` stands 181 to 183 °C; under `O=C(O)CNS(=O)(=O)c1ccc(Cl)cc1`, 177 to 179 °C. `NC(=O)NCc1cccc(F)c1` gave a melting point of 134 to 136 °C.

`Cc1nc(CN)oc1-c1ccc(Cl)cc1` registered a melting point of 69 to 71 °C. Consider `CC1CN(c2ccccc2C=O)CC(C)O1` (configuration not stated), for which the melting point fell in the range of 94 to 96 °C. For `COc1nc2ccccc2cc1/C=C/C(=O)O`, the melting point was 219 to 221 °C.

In the case of `NC(=O)NCCCCC(=O)O`, the melting point fell in the range of 178 to 180 °C.

With `ClCc1cn(-c2ccccc2)nc1-c1ccccc1`, the melting point is 87 to 89 °C. Molecule `Oc1nc(-c2ccccc2Cl)no1` had a melting point of 161 to 163 °C.

Turning to `NC(C(=O)O)(c1cc(F)cc(F)c1)C(F)(F)F` (configuration not stated), the melting point lay within 121 to 123 °C.

Consider `CC(C)(C)OC(=O)N1CCC(NC(N)=O)CC1`, for which the melting point is 217 to 219 °C. `COc1ccccc1-c1cc(N)n(-c2ccccc2)n1` came in with a melting point of 119 to 121 °C. For `CCn1cc(C(=O)O)cn1`, the melting point was in the range of 144 to 146 °C. `Cc1ccc(C(C)C)cc1OCC(=O)O` showed a melting point of 153 to 155 °C. For `CSc1ccnc(C#N)c1` the value was 66 to 68 °C. Molecule `O=c1[nH]c(=O)c2cc(S(=O)(=O)Cl)ccc2[nH]1` displayed a melting point of 272 to 274 °C.

Regarding `COC(=O)c1ccc(F)c(S(=O)(=O)Cl)c1`, the melting point lay within 48 to 50 °C.

Turning to `NS(=O)(=O)c1cccc2c1OCCO2`, the melting point was 173 to 175 °C.

The molecule `NC(=O)C1CCN(C(=O)CCl)CC1` returned a melting point of 136 to 138 °C. The molecule `CN(CC#N)C(=O)c1ccccc1` yielded a melting point of 73 to 75 °C. In turn, `Cc1csc(-c2cnc(C)[nH]c2=O)n1` returned a melting point of 302 to 304 °C. Take `O=C(O)c1c[nH]c2ccc([N+](=O)[O-])cc12`: the melting point fell in the range of 255 to 257 °C.

The molecule `Nc1ccc(S(=O)(=O)Nc2ccccc2)cc1` registered a melting point of 176 to 178 °C. For `NOC1CCCCO1` (configuration not stated) the value was 34 to 37 °C; for `CC(C)C(NC(=O)c1ccncc1)C(=O)O` (configuration not stated), 187 to 189 °C. As to `O=C(O)CCSc1ccnc2cc(Cl)ccc12`, the melting point lay within 209 to 211 °C.

In turn, `Cc1cccc(COc2ccccc2C(=O)O)c1` registered a melting point of 155 to 157 °C.

For the molecule `N#Cc1ccccc1Oc1ccccn1`, the melting point was 72 to 74 °C.

`Cc1sc2nc(-c3cccnc3)nc(Cl)c2c1-c1ccccc1` registered a melting point of 144 to 146 °C. Under `O=C(Nc1cnccn1)c1ccc(I)cc1` stands 196 to 198 °C; under `Nc1nc(-c2cccc(Cl)c2)ns1`, 149 to 151 °C. `O=C(O)c1ccc(Br)cc1I` displayed a melting point of 170 to 172 °C. Regarding `Clc1cnc(Cl)c(-c2ccccc2)n1`, the melting point lay within 52 to 54 °C. `COc1cc2c(cc1OC)NCC2` yielded a melting point of 103 to 105 °C. `Nc1nc(-c2cccc(-n3cnnn3)c2)cs1` gave a melting point of 184 to 186 °C.

Take `CC(=O)N1c2ccccc2C[C@H]1C(=O)O`: the melting point was 194 to 196 °C. For `COc1ccc(C)cc1-c1nn(CC(C)C)cc1C(=O)O`, the melting point fell in the range of 181 to 183 °C. `CC(C)Cn1cnc2c1c(=O)[nH]c(=O)n2Cc1ccccc1` registered a melting point of 179 to 181 °C. In turn, `CC1CNC(=Nc2cccc3cccnc23)S1` (configuration not stated) yielded a melting point of 92 to 94 °C. Under `Nc1ccc(Sc2nc3ccccc3[nH]2)cc1` stands 224 to 226 °C.

In turn, `Cc1ncc2ccccn12` yielded a melting point of 46 to 48 °C. For `COc1ccc(S(=O)(=O)NC(C)(C)C)c(CC(=O)O)c1` the value was 198 to 200 °C; for `CCCC1(c2ccccc2)NC(=O)NC1=O` (configuration not stated), 172 to 174 °C; for `COc1cc(CCC(=O)O)ccc1OCC(F)(F)F`, 103 to 105 °C. For `CCOC(=O)c1csc(-c2ccccn2)n1`, the melting point is 67 to 69 °C. In turn, `CC(C)(C)c1ccc(CCCCC(=O)O)cc1` returned a melting point of 71 to 73 °C.

`CC(C)(C)OC(=O)N1CCc2ccc(O)cc2C1` came in with a melting point of 134 to 136 °C. For the molecule `CSc1ccc(C(=O)CCl)cc1`, the melting point was in the range of 72 to 74 °C. `Cn1cc(C=O)nn1` returned a melting point of 103 to 105 °C. Regarding `NC(CCN1CCN(Cc2ccccc2)CC1)=NO`, the melting point was in the range of 111 to 113 °C. Molecule `O=S(=O)(c1ccc(F)cc1)C(F)F` registered a melting point of 51 to 53 °C.

In turn, `CC(C)(C)OC(=O)N1CC(OS(C)(=O)=O)C1` returned a melting point of 65 to 67 °C. For `COc1ccc(CCC(C)(N)C(=O)O)cc1` (configuration not stated), the melting point lay within 303 to 305 °C. With `CN(C)CCn1nnnc1S`, the melting point was 213 to 215 °C. The molecule `CS(=O)(=O)Nc1ccc(S(N)(=O)=O)cc1F` had a melting point of 190 to 192 °C.

`Cc1nc(-c2cccc(O)c2)no1` yielded a melting point of 126 to 128 °C.

As to `CS(=O)(=O)c1nc2cc(Br)cnc2[nH]1`, the melting point was in the range of 222 to 224 °C. The molecule `O=C(Nc1ccc(Cl)cn1)C1CCNCC1` showed a melting point of 137 to 139 °C. Molecule `Nc1ccc(F)c(NS(=O)(=O)Cc2ccccc2)c1` returned a melting point of 172 to 174 °C.

The molecule `CN(c1ccc(O)cc1)S(=O)(=O)c1cccs1` yielded a melting point of 149 to 151 °C.

Take `COc1ccc(NS(=O)(=O)c2ccc(C)c(N)c2)cc1`: the melting point lay in the range of 127 to 129 °C.

Consider `CC(C)c1c(C(=O)O)cnc2ncnn12`, for which the melting point fell in the range of 207 to 209 °C. Take `Cc1cc(O)cc(=O)o1`: the melting point was 188 to 190 °C. As for `COc1cc(C(=O)Cc2nc3ccccc3n2C(F)F)cc(OC)c1OC`, the melting point fell in the range of 112 to 114 °C. In turn, `NCC(=O)Nc1cccc(Br)c1` returned a melting point of 79 to 81 °C. In turn, `Nc1ccc(Cc2nnc3ccccn23)cc1` yielded a melting point of 207 to 209 °C.

In turn, `Nc1cccc(S(=O)(=O)NC2=NCCC2)c1` had a melting point of 166 to 168 °C. For the molecule `Nc1n[nH]c(C(=O)O)c1-c1ccccc1`, the melting point is 269 to 271 °C. The molecule `Nc1ccc(-c2nc3cc(F)ccc3[nH]2)cc1` had a melting point of 194 to 196 °C. `Nc1ccc(O)c(S(N)(=O)=O)c1`: the melting point lay in the range of 169 to 171 °C. With `Cc1ccnc(N)c1C#N`, the melting point fell in the range of 148 to 150 °C. In the case of `CC(C)(C)OC(=O)NCC(C(=O)O)c1ccccc1` (configuration not stated), the melting point was in the range of 144 to 146 °C. Regarding `CC(C)C(N)c1nn[nH]n1` (configuration not stated), the melting point is 272 to 274 °C. Regarding `COc1cc(Br)c(S(=O)(=O)Cl)cc1Cl`, the melting point lay within 89 to 91 °C.

Molecule `Cc1ccc(N)cc1C(=O)N(C)C` gave a melting point of 114 to 116 °C.

By melting point is commonly meant the temperature of the solid-liquid transition.
